Consider 5 molecules from patent publication US20150299219A1, “BICYCLIC PYRAZOLONE COMPOUNDS AND METHODS OF USE” (Calitor Sciences, LLC, priority 2014, published 2015).

The nature of data set [1]: Pharmacokinetic profiles in rats. It is filed as in vivo. The settings on record: for clearance (CL) / AUC(0-t) / half-life / Vd: iv dosing, 1 mg/kg; for AUC(0-t) / half-life / Vd / bioavailability: rat, plasma; for Vd: read-out: Vss; for bioavailability: po, bioavailability (F). Here is the method:
The LC/MS/MS system used in the analysis consists of an Agilent 1200 Series vacuum degasser, binary pump, well-plate autosampler, thermostatted column compartment, the Agilent G6430 Triple Quadrupole Mass Spectrometer with an electrosprayionization (ESI) source. Quantitative analysis was carried out using MRM mode. The parameters for MRM transitions are in the Table A.
An Agilent XDB-C18, 2.1×30 mm, 3.5 μM column was used for the analysis. 5 μL of the samples were injected. Analysis condition: The mobile phase was 0.1% formic acid in water (A) and 0.1% formic acid in methanol (B). The flow rate was 0.4 mL/min. And the gradient of Mobile phase was in the Table B.
Alternatively, an Agilent 6330 series LC/MS/MS spectrometer equipped with G1312A binary pumps, a G1367A autosampler and a G1314C UV detector were used in the analysis. An ESI source was used on the LC/MS/MS spectrometer. The analysis was done in positive ion mode as appropriate and the MRM transition for each analyte was optimized using standard solution. A Capcell MP-C18 100×4.6 mm I.D., […] column (Phenomenex, Torrance, Calif., USA) was used during the analysis. The mobile phase was 5 mM ammonia acetate, 0.1% MeOH in water (A): 5 mM ammonia acetate, 0.1% MeOH in acetonitrile (B) (70/30, v/v). The flow rate was 0.6 mL/min. Column was maintained at ambient temperature. 20 μL of the samples were injected.
The compounds disclosed herein are assessed in pharmacokinetic studies in mice, rats, dogs or monkeys. The compounds are administered as a water solution, 2% HPMC+1% TWEEN®80 in water solution, 5% DMSO+5% solutol in saline, 4% MC suspension or capsule. For the intravenous administration, the animals are generally given at 1 or 2 mg/kg dose. For the oral (p.o.) dosing, mice and rats are generally given 5 or 10 mg/kg dose, and dogs and monkeys are generally given 10 mg/kg dose. The blood samples (0.3 mL) are drawn at 0.25, 0.5, 1.0, 2.0, 3.0, 4.0, 6.0, 8.0, 12 and 24 h time points or 0.083, 0.25, 0.5, 1.0, 2.0, 4.0, 6.0, 8.0 and 24 h time points and centrifuged at 3,000 or 4000 rpm for 2 to 10 min. The plasma solutions are collected, and stored at −20° C. or −70° C. until analyzed by LC/MS/MS as described above.

Data set [2] addresses T1, c-Met (h) (Homo sapiens, UniProt P08581).
T1 construct: purchased Millipore UK Ltd
In words: c-Met (h) kinase assay. It is filed as biochemical. Here is the method:
Kinase assays can be performed by measurement of incorporation of γ-^33P ATP into immobilized myelin basic protein (MBP). High binding white 384 well plates (Greiner) are coated with MBP (Sigma #M-1891) by incubation of 60 μL/well of 20 μg/mL MBP in Tris-buffered saline (TBS; 50 mM Tris pH 8.0, 138 mM NaCl, 2.7 mM KCl) for 24 h at 4° C. Plates are washed 3× with 100 μL TBS. Kinase reactions are carried out in a total volume of 34 μL in kinase buffer (5 mM Hepes pH 7.6, 15 mM NaCl, 0.01% bovine gamma globulin (Sigma #I-5506), 10 mM MgCl2, 1 mM DTT, 0.02% TritonX-100). Compound dilutions are performed in DMSO and added to assay wells to a final DMSO concentration of 1%. Each data point is measured in duplicate, and at least two duplicate assays are performed for each individual compound determination. Enzyme is added to final concentrations of 10 nM or 20 nM, for example. A mixture of unlabeled ATP and γ-^33P ATP is added to start the reaction (2×10^6 cpm of γ-^33P ATP per well (3000 Ci/mmole) and 10 μM unlabeled ATP, typically. The reactions are carried out for 1 h at room temperature with shaking. Plates are washed 7× with TBS, followed by the addition of 50 μL/well scintillation fluid (Wallac). Plates are read using a Wallac Trilux counter. This is only one format of such assays; various other formats are possible, as known to one skilled in the art.
The above assay procedure can be used to determine the IC50 for inhibition and/or the inhibition constant, Ki. The IC50 is defined as the concentration of compound required to reduce the enzyme activity by 50% under the condition of the assay. The IC50 value is estimated by preparing a 10 point curve using a 1/2 log dilution series (for example, a typical curve may be prepared using the following compound concentrations: 10 μM, 3 μM, 1 μM, 0.3 μM, 0.1 μM, 0.03 μM, 0.01 μM, 0.003 μM, 0.001 μM and 0 μM).
Met (h) is incubated with 8 mM MOPS pH 7.0, 0.2 mM EDTA, 250 μM KKKSPGEYVNIEFG, 10 mM MgAcetate and [γ-^33P-ATP] (specific activity approx. 500 cpm/pmol, concentration as required). The reaction is initiated by the addition of the MgATP mix. After incubation for 40 minutes at room temperature, the reaction is stopped by the addition of 3% phosphoric acid solution. 10 μL of the reaction is then spotted onto a P30 filtermat and washed three times for 5 minutes in 75 mM phosphoric acid and once in methanol prior to drying and scintillation counting.
The kinase assays described herein were performed at Millipore UK Ltd, Dundee Technology Park, Dundee DD2 1SW, UK.

pIC50: −log10 of the molar value.

T1 sequence (P08581 25-1390): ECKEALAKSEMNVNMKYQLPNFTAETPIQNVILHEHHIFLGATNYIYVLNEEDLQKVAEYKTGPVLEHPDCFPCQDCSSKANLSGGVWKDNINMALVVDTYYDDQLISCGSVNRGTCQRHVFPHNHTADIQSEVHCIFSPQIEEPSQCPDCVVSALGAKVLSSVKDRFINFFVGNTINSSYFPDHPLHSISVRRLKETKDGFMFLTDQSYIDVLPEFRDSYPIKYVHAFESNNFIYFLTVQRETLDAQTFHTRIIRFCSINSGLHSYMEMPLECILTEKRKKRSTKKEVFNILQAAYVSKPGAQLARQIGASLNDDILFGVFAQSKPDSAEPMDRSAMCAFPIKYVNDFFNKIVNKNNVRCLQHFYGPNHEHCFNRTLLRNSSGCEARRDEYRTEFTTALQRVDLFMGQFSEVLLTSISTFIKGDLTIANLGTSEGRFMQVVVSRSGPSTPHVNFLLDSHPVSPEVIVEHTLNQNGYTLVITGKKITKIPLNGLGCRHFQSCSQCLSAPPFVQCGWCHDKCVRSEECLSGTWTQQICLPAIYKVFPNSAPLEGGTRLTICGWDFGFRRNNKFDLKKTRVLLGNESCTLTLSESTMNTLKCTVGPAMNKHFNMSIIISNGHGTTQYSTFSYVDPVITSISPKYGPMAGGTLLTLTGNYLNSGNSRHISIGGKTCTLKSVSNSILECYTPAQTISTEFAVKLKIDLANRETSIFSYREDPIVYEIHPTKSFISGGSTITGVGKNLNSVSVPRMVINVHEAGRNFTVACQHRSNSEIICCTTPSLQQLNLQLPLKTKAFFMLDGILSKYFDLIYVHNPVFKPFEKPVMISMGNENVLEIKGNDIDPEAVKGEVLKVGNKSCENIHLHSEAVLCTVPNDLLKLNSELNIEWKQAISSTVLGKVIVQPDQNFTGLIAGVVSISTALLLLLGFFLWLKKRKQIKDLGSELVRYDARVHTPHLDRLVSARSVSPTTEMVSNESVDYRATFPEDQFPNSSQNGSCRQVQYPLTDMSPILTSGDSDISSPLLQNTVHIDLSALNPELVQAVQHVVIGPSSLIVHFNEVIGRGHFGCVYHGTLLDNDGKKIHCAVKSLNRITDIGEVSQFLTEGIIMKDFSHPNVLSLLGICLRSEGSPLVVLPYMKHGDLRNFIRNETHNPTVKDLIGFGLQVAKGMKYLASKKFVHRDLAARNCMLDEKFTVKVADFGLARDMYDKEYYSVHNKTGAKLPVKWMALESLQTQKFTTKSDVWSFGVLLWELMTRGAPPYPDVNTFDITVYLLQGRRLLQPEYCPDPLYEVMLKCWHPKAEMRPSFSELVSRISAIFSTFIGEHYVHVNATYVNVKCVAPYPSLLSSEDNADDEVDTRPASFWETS

`O=C(Nc1ccc(Oc2ccnc(NC(=O)C3CC3)c2)cc1)c1c2n(n(-c3ccccc3)c1=O)CCC2` [Ex. 2, N-(4-((2-(cyclopropanecarboxamido)pyridin-4-yl)oxy)phenyl)-2-oxo-1-phenyl-2,4,5,6-tetrahydro-1H-pyrrolo[1,2-b]pyrazole-3-carboxamide]: in data set [1], the “clearance (CL)” value turned out to be 0.55 mL/min/kg, the AUC(0-t) came to 27200 ng·h/mL, the half-life is 7.71 h and the Vd is 0.313 L/kg. Further, the bioavailability in data set [1] was found to be 68.1%. Moreover, the pIC50 in data set [2] was 7.59.

Take `CC(=O)Nc1cc(Oc2ccc(NC(=O)c3c4n(n(-c5ccccc5)c3=O)CCC4)cc2)ccn1` [Ex. 3, N-(4-((2-acetamidopyridin-4-yl)oxy)phenyl)-2-oxo-1-phenyl-2,4,5,6-tetrahydro-1H-pyrrolo[1,2-b]pyrazole-3-carboxamide]: in data set [1], the “clearance (CL)” value was 0.65 mL/min/kg, the area under the curve AUC(0-t) came out at 26300 ng·h/mL, the half-life is 3.83 h and the Vd was 0.18 L/kg. In data set [1], the bioavailability was found to be 94.5%. Moreover, the pIC50 in data set [2] is 7.00.

With `CC(=O)Nc1cc(Oc2ccc(NC(=O)c3c4n(n(-c5ccccc5)c3=O)CCOC4)nc2)ccn1` [Ex. 12, N-(5-((2-acetamidopyridin-4-yl)oxy)pyridin-2-yl)-2-oxo-1-phenyl-2,4,6,7-tetrahydro-1H-pyrazolo[5,1-c][1,4]oxazine-3-carboxamide], in data set [1], the “clearance (CL)” value came out at 0.333 mL/min/kg, the AUC(0-t) was found to be 46700 ng·h/mL, the half-life was 6.68 h and the Vd was 0.136 L/kg. Moreover, in data set [1], the bioavailability worked out at 72.1%. Also, in data set [2], the pIC50 was 7.27.

Take `O=C(Nc1ccc(Oc2ccnc(NC(=O)C3CC3)c2)cn1)c1c2n(n(-c3ccccc3)c1=O)CCC2` [Ex. 14, N-(5-((2-(cyclopropanecarboxamido)pyridin-4-yl)oxy)pyridin-2-yl)-2-oxo-1-phenyl-2,4,5,6-tetrahydro-1H-pyrrolo[1,2-b]pyrazole-3-carboxamide]: in data set [1], the “clearance (CL)” value is 1.27 mL/min/kg, the AUC(0-t) is 12900 ng·h/mL, the half-life is 5.01 h and the Vd stood at 0.359 L/kg. This molecule also yielded a bioavailability in data set [1] of 87.9%. This molecule also had a pIC50 in data set [2] of 7.68.

For the molecule `O=C(Nc1ccc(Oc2ccnc(NC(=O)C3CC3)c2)cc1)c1c2n(n(-c3ccccc3)c1=O)CCOC2` [Ex. 19, N-(4-((2-(cyclopropanecarboxamido)pyridin-4-yl)oxy)phenyl)-2-oxo-1-phenyl-2,4,6,7-tetrahydro-1H-pyrazolo[5,1-c][1,4]oxazine-3-carboxamide], in data set [1], the “clearance (CL)” value was 0.3 mL/min/kg, the AUC(0-t) is 50100 ng·h/mL, the half-life was 7.09 h and the Vd amounted to 0.15 L/kg. The molecule further gave a bioavailability in data set [1] of 66.7%. The molecule further showed a pIC50 in data set [2] of 7.39.

Usually AUC(0-t) stands for exposure summed from dosing to a finite time, without extrapolation to infinity. As a reminder, the half-life is the time needed for the level to fall by half in the phase considered. A high value points to slow loss. As a reminder, the bioavailability is the share of a dose that reaches the circulation, judged against a reference dose that is usually intravenous. As a reminder, the pIC50 is the IC50 on a negative log10 scale, so that one unit is a factor of ten. A lower pIC50 goes with a large IC50.
